Reference: patent US20230355646A1, “AUTOPHAGY ACTIVATOR” (Resonac Corporation, priority 2020, published 2023)

What was measured:
LC3 gene = LC3 gene expression promoting effect in human neuroblastoma SH-SY5Y in the presence of amyloid β; assay type: cell-based
Procedure: (§1) In the presence of an autophagy activator, the expression levels of the LC3 gene, ATG5 gene, and ATG7 gene in human neuroblastoma (SH-SY5Y; obtained from ATCC) were measured by the following test method, and the effect of promoting the expression of the LC3 gene, ATG5 gene, and ATG7 gene by an autophagy activator was evaluated.
(§2) In the following examples and comparative examples, tests were performed by adding amyloid β, which is known to cause a decrease in autophagy in nerve cells, to each medium.
(§3) SH-SY5Y cells were prepared at a seeding density of 10000 cells/cm^2 and cultured for 24 hours in D-MEM medium/Ham's F-12 medium (manufactured by Sigma-Aldrich) to which 10% fetal bovine serum (manufactured by MP Biomedicals) was added. Next, in Example 15, the methyl hesperidin DMSO solution was added to the medium such that the final concentration of methyl hesperidin was 10^−3% (V/V) and the final concentration of DMSO was 0.1% (V/V). […]
(§4) Then, using Nucleospin (registered trademark) RNA kit (manufactured by Takara Bio Inc.), RNA was extracted from SH-SY5Y cells in each example, and cDNA was synthesized from the obtained RNA. Next, using this cDNA as a template, by quantitative real-time PCR, the expression level of each gene was quantified using primers (manufactured by Takara Bio Inc.) specific to the LC3 gene, ATG5 gene, and ATG7 gene, respectively. […]

ATG7 gene = ATG7 gene expression promoting effect in human neuroblastoma SH-SY5Y in the presence of amyloid β; assay type: cell-based
Procedure: as §1, §2, §3, §4

[1] = SH-SY5Y cells with amyloid β, compared to DMSO and amyloid β of Comparative Example 5
[2] = SH-SY5Y cells, 20 μM amyloid β present, 10^−2% (V/V) methyl hesperidin or hesperidin, additional ingredient where in the example, 48 hours, Reference Example 3 = 1.00

**Q.** How did the “expression level of the LC3 gene (in words)” value (LC3 gene; [1]) turn out when COc1ccc([C@@H]2CC(=O)c3c(O)cc(O[C@@H]4O[C@H](CO[C@@H]5O[C@@H](C)[C@H](O)[C@@H](O)[C@H]5O)[C@@H](O)[C@H](O)[C@H]4O)cc3O2)cc1O [Comparative Example 2, hesperidin] was run?
**A.** increased

**Q.** What about the “Relative gene expression level LC3” value (LC3 gene; [2]) of the same compound?
**A.** 2.41

**Q.** What about the “expression level of the ATG7 gene (in words)” value (ATG7 gene; [1]) of the same compound?
**A.** increased

**Q.** What about the “Relative gene expression level ATG7” value (ATG7 gene; [2]) of the same compound?
**A.** 2.31
